Source: patent publication US5380715A, “Ap4 A as a hypotensive agent” (Fujirebio Inc., priority 1992, dated 1995)
“Also recorded” adds a separate entry of the source. Where two headings read alike, the source gives them in different places.

Columns and labels:
[1] = system: rabbit platelet aggregation; assay: Inhibitory effect on rabbit platelet aggregation; assay type: cell-based; conditions: for IC50: Oryctolagus cuniculus, Platelet
Protocol: Fresh blood samples were collected from male Japanese white rabbits weighing 2-3 kg. Blood was anticoagulated with citric acid (1 ml 3.8% citric acid solution +9 ml blood). These samples were centrifuged at room temperature for 20 min at 200×g to obtained platelet-rich plasma (PRP). Furthermore, the supernatant liquid was centrifuged for 10 min at 1500×g to obtained platelet-poor plasma (PPP). Aggregation of platelests was measured photometrically in a Nihon Kohden hema tracer equipped with a mechanical stirring device and with a chart record. At this time, the chart recorder was calibrated as follows: the light transmission obtained with PPP was set as 100% transmission and the optical density of PRP was taken as 0% transmission. Maximal aggregation, i.e. the maximal change in optical density of the primary wave calculated in percent light transmission. From the study, it was determined that ADP, Ap3A, PAF(platelet activating factor) and collagen induced maximal aggregations at a concentration of 1×10^-5 M, 1×10^-4 M, 1.9×10^-7 M and 5 μg/kg, respectively. In the following studies, these aggregating agents were used at maximal dose. The effect of Ap4A on platelet aggregation by ADP and Ap3A were tested. In this time, Ap4A was pretreated for 1 or 10 min before the addition of aggregating agents. Also, after the platelet aggregation was induced by addition of ADP, PAF or collagen to PRP, the platelet aggregate dispersing effect of Ap4A was tested.

dogs = assay: Gradual hypotension during anesthesia in dogs (hemodynamics, blood gas); assay type: in vivo, mongrel dogs; conditions: dog
Protocol: Dogs were anesthetized with enflurane. […] The mean blood pressure (B.P.), heart rate (H.R.), cardiac output (C.O.), arterial oxygen tension (PaO2), mixed venos oxygen tension (PvO2), arterial carbonate tension (PaCO2), mixed venous carbonate tension (PvCO2), arterial pH (pH-a), mixed venous pH (pH-v), and base excess thereof were measured.
Mongrel dogs weighing 9 to 17 kg were anesthetized with intravenous thiopental 20 mg/kg by bolus injection, followed by 1% enflurane in 40% O2 /N2 after endotracheal intubation. […] Bilateral femoral arteries were catheterized, one for the determination of blood pressure and the other for blood sampling.
Access to the bilateral femoral veins was obtained for the administration of Ap4A, PG E1 or nitroglycerin and for the insertion of a ballon-tipped thermodilution catheter. The electrocardiogram was continuously monitored. The control values were obtained before the administration of each of the above-mentioned three agents. Each agent was administered using a syringe pump at titrated doses to produce gradual 20%, 40%, 50%, 60%, and 80% decreases in the mean arterial pressure (MAP) from the control value.
After the target blood pressure and stable hemodynamic conditions were reached, the following parameters were measured: heart rate (HR), mean pulmonary artery pressure (PAM), pulmonary capillary wedge pressure (PCWP), and central venous pressure (CVP). Cardiac output (CO) was determined by the thermodilution method. Gas analyses of arterial and mixed venous bloods were performed using a blood gas analyzer.

[2] = enflurane, at -20% blood pressure
[3] = enflurane, at -40% blood pressure
[4] = enflurane, at -50% blood pressure
[5] = enflurane, at -60% blood pressure
[6] = enflurane, at -80% blood pressure

In the case of `Nc1ncnc2c1ncn2[C@@H]1O[C@H](COP(=O)(O)OP(=O)(O)OP(=O)(O)OP(=O)(O)OC[C@H]2O[C@@H](n3cnc4c(N)ncnc43)[C@H](O)[C@@H]2O)[C@@H](O)[C@H]1O` [Ap4A, diadenosine 5',5'"-p^1,p^4 -tetraphosphate], the “time to submaximal/maximum anti-platelet aggregating effect” value [1] is reported as ≤ 1 min, the “inhibition of platelet aggregation” value ([1]; ADP- and Ap3A-induced, result in words) is reported as “Both ADP- and Ap3A-induced platelet aggregations were inhibited; also recorded: inhibits ADP-induced and Ap3A (diadenosine 5', 5'"-p^1,p^4 -triphosphate)-induced platelet-aggregation reactions” and the IC50 ([1]; read-out: Ap4A IC50, ADP (1 × 10^-5 M) induced, 1 min. pretreatment) is reported as 205 µM. It also gave an IC50 ([1]; read-out: Ap4A IC50, ADP (1 × 10^-5 M) induced, 10 min. pretreatment) of 42 µM, an IC50 ([1]; read-out: Ap4A IC50, Ap3A (1 × 10^-4 M) induced, 1 min. pretreatment) of 9.06 µM and an IC50 ([1]; read-out: Ap4A IC50, Ap3A (1 × 10^-4 M) induced, 10 min. pretreatment) of 49.9 µM. For the same compound, the “time to substantially maximum inhibitory effect” value ([1]; result in words) was “substantially maximum effect is obtained within one minute”, the “fall in blood pressure attainable” value (dogs; enflurane) was ~60% and the “Arterial Carbonate Tension PaCO2” value (dogs; [2]) was 36.0 ± 1.0 mmHg. The “Arterial Oxygen Tension PaO2” value (dogs; [2]) was 252.8 ± 7.2 mmHg, the “Arterial pH (pH-a)” value (dogs; [2]) was 7.337 ± 0.013 and the “Body Temperature BT” value (dogs; [2]) was 37.2 ± 0.6 °C. The “Cardiac Output C.O.” value (dogs; [2]) was 2.42 ± 0.25 L/min, the “Central Venous Pressure CVP” value (dogs; [2]) was 3.77 ± 0.25 mmHg and the “Heart Rate H.R.” value (dogs; [2]) was 160.1 ± 7.5 beats/min. The “Hematocrit Value Hct” value (dogs; [2]) was 40.6 ± 2.1%, the “Mean Blood Pressure B.P. (mean)” value (dogs; [2]) was 104.3 ± 3.3 and the “Mean Blood Pressure B.P. (Δ%)” value (dogs; [2]) was -19.8 ± 0.4%. For the same compound, the “Mixed Venous Carbonate Tension PvCO2” value (dogs; [2]) was 39.3 ± 1.2 mmHg, the “Mixed Venous Oxygen Tension PvO2” value (dogs; [2]) was 61.6 ± 2.4 mmHg and the “Mixed Venous pH (pH-v)” value (dogs; [2]) was 7.308 ± 0.008. The “Pulmonary Artery Pressure PAM” value (dogs; [2]) was 18.4 ± 1.5 mmHg, the “Pulmonary Capillary Wedge Pressure PCWP” value (dogs; [2]) was 8.3 ± 1.3 mmHg and the “Base Excess BE” value (dogs; enflurane, at -20% blood pressure (Table 1)) was -5.39 ± 0.77 mBq-1. For the same compound, the “Arterial Carbonate Tension PaCO2” value (dogs; [3]) was 35.3 ± 1.0 mmHg, the “Arterial Oxygen Tension PaO2” value (dogs; [3]) was 253.8 ± 7.6 mmHg and the “Arterial pH (pH-a)” value (dogs; [3]) was 7.341 ± 0.018. The “Body Temperature BT” value (dogs; [3]) was 37.3 ± 0.6 °C, the “Cardiac Output C.O.” value (dogs; [3]) was 2.22 ± 0.15 L/min and the “Central Venous Pressure CVP” value (dogs; [3]) was 3.89 ± 0.29 mmHg. For the same compound, the “Heart Rate H.R.” value (dogs; [3]) was 154.9 ± 6.9 beats/min, the “Hematocrit Value Hct” value (dogs; [3]) was 40.6 ± 1.7% and the “Mean Blood Pressure B.P. (mean)” value (dogs; [3]) was 78.2 ± 2.3. For the same compound, the “Mean Blood Pressure B.P. (Δ%)” value (dogs; [3]) was -39.8 ± 0.4%, the “Mixed Venous Carbonate Tension PvCO2” value (dogs; [3]) was 36.6 ± 1.3 mmHg and the “Mixed Venous Oxygen Tension PvO2” value (dogs; [3]) was 63.3 ± 1.7 mmHg. The “Mixed Venous pH (pH-v)” value (dogs; [3]) was 7.311 ± 0.009, the “Pulmonary Artery Pressure PAM” value (dogs; [3]) was 17.8 ± 1.6 mmHg and the “Pulmonary Capillary Wedge Pressure PCWP” value (dogs; [3]) was 8.0 ± 1.2 mmHg. The “Base Excess BE” value (dogs; enflurane, at -40% blood pressure (Table 1)) was -5.52 ± 0.89 mBq-1, the “Arterial Carbonate Tension PaCO2” value (dogs; [4]) was 35.0 ± 1.1 mmHg and the “Arterial Oxygen Tension PaO2” value (dogs; [4]) was 252.5 ± 7.5 mmHg. For the same compound, the “Arterial pH (pH-a)” value (dogs; [4]) was 7.338 ± 0.011, the “Body Temperature BT” value (dogs; [4]) was 37.2 ± 0.6 °C and the “Cardiac Output C.O.” value (dogs; [4]) was 2.02 ± 0.16 L/min. For the same compound, the “Central Venous Pressure CVP” value (dogs; [4]) was 3.64 ± 0.35 mmHg, the “Heart Rate H.R.” value (dogs; [4]) was 144.0 ± 7.3 beats/min and the “Hematocrit Value Hct” value (dogs; [4]) was 40.7 ± 1.7%. The “Mean Blood Pressure B.P. (mean)” value (dogs; [4]) was 65.4 ± 2.0, the “Mean Blood Pressure B.P. (Δ%)” value (dogs; [4]) was -49.6 ± 0.4% and the “Mixed Venous Carbonate Tension PvCO2” value (dogs; [4]) was 36.7 ± 1.4 mmHg. For the same compound, the “Mixed Venous Oxygen Tension PvO2” value (dogs; [4]) was 60.5 ± 2.1 mmHg, the “Mixed Venous pH (pH-v)” value (dogs; [4]) was 7.308 ± 0.011 and the “Pulmonary Artery Pressure PAM” value (dogs; [4]) was 16.3 ± 1.4 mmHg. For the same compound, the “Pulmonary Capillary Wedge Pressure PCWP” value (dogs; [4]) was 7.6 ± 1.2 mmHg, the “Base Excess BE” value (dogs; enflurane, at -50% blood pressure (Table 1)) was -5.77 ± 0.66 mBq-1 and the “Arterial Carbonate Tension PaCO2” value (dogs; [5]) was 34.6 ± 1.3 mmHg. The “Arterial Oxygen Tension PaO2” value (dogs; [5]) was 253.8 ± 7.7 mmHg, the “Arterial pH (pH-a)” value (dogs; [5]) was 7.315 ± 0.010 and the “Body Temperature BT” value (dogs; [5]) was 37.2 ± 0.6 °C. The “Cardiac Output C.O.” value (dogs; [5]) was 1.55 ± 0.20 L/min, the “Central Venous Pressure CVP” value (dogs; [5]) was 3.63 ± 0.44 mmHg and the Dose (dogs; [5]) was 242.4 ± 32.8 µg/kg/min. The “Heart Rate H.R.” value (dogs; [5]) was 131.6 ± 7.5 beats/min, the “Hematocrit Value Hct” value (dogs; [5]) was 41.9 ± 2.2% and the “Mean Blood Pressure B.P. (mean)” value (dogs; [5]) was 51.7 ± 1.7. For the same compound, the “Mean Blood Pressure B.P. (Δ%)” value (dogs; [5]) was -60.3 ± 0.2%, the “Mixed Venous Carbonate Tension PvCO2” value (dogs; [5]) was 38.1 ± 1.8 mmHg and the “Mixed Venous Oxygen Tension PvO2” value (dogs; [5]) was 54.9 ± 1.8 mmHg. The “Mixed Venous pH (pH-v)” value (dogs; [5]) was 7.292 ± 0.011, the “Pulmonary Artery Pressure PAM” value (dogs; [5]) was 14.3 ± 1.1 mmHg and the “Pulmonary Capillary Wedge Pressure PCWP” value (dogs; [5]) was 6.7 ± 10.9 mmHg. The “Base Excess BE” value (dogs; enflurane, at -60% blood pressure (Table 1)) was -7.30 ± 0.64 mBq-1, the “Arterial Carbonate Tension PaCO2” value (dogs; [6]) was 37.5 ± 1.1 mmHg and the “Arterial Oxygen Tension PaO2” value (dogs; [6]) was 245.6 ± 9.2 mmHg. For the same compound, the “Arterial pH (pH-a)” value (dogs; [6]) was 7.260 ± 0.010, the “Body Temperature BT” value (dogs; [6]) was 37.4 ± 0.6 °C and the “Cardiac Output C.O.” value (dogs; [6]) was 1.16 ± 0.11 L/min. For the same compound, the “Central Venous Pressure CVP” value (dogs; [6]) was 3.51 ± 0.60 mmHg, the Dose (dogs; [6]) was 3895.2 ± 675.7 µg/kg/min and the “Heart Rate H.R.” value (dogs; [6]) was 98.6 ± 4.7 beats/min. The “Hematocrit Value Hct” value (dogs; [6]) was 42.8 ± 2.2%, the “Mean Blood Pressure B.P. (mean)” value (dogs; [6]) was 28.8 ± 1.0 and the “Mean Blood Pressure B.P. (Δ%)” value (dogs; [6]) was -77.8 ± 0.8%. The “Mixed Venous Carbonate Tension PvCO2” value (dogs; [6]) was 44.4 ± 1.4 mmHg, the “Mixed Venous Oxygen Tension PvO2” value (dogs; [6]) was 53.3 ± 2.8 mmHg and the “Mixed Venous pH (pH-v)” value (dogs; [6]) was 7.228 ± 0.014. The “Pulmonary Artery Pressure PAM” value (dogs; [6]) was 14.3 ± 1.2 mmHg, the “Pulmonary Capillary Wedge Pressure PCWP” value (dogs; [6]) was 7.4 ± 1.0 mmHg and the “Base Excess BE” value (dogs; enflurane, at -80% blood pressure (Table 1)) was -9.36 ± 0.79 mBq-1. For the same compound, the “effect on arterial pH / venous pH” value (dogs; result in words) was “does not decrease arterial pH and venous pH up to a less than 60% fall in blood pressure; also recorded: does not substantially decrease arterial pH in practical use”, the “effect on base excess” value (dogs; result in words) was “does not make any significant changes in base excess” and the “effect on carbonate tension” value (dogs; result in words) was “tendency to decrease arterial carbonate tension (PaCO2), and mixed venous carbonate tension (PvCO2); also recorded: tendency to decrease arterial carbonate tension (PaCO2), mixed venous carbonate tension (PvCO2), or actually decreases PaCO2 and PvCO2”. For the same compound, the “effect on cardiac output” value (dogs; result in words) was “cardiac output is significantly increased at a 20% fall in blood pressure; also recorded: tendency to significantly increase the cardiac output when a 20% fall in blood pressure is attained, and the cardiac output is continuously increased until a 60% fall in blood pressure is attained”, the “effect on heart rate” value (dogs; result in words) was “when a 60% or more fall in blood pressure is attained, Ap4A is seem to have significant adverse effects on the heart rate; also recorded: significant effect on heart rate is that required for a 60% or more fall in blood pressure” and the “effect on oxygen tension” value (dogs; result in words) was “tendency to increase arterial oxygen tension (PaO2), and mixed venous oxygen tension (PvO2); also recorded: tendency to increase arterial oxygen tension (PaO2), and mixed venous oxygen tension (PvCO2), or actually increases PaO2 and PvO2”. The “hypotensive effect compared with PG E1 / nitroglycerin” value (dogs; result in words) was “the same hypotensive effect as that of PG E1; also recorded: comparable with that of PG E1 and is better than that of nitroglycerin”.
